Test results: ChEMBL document CHEMBL4831557, “Parthenolide Derivatives as PKM2 Activators Showing Potential in Colorectal Cancer” (J Med Chem, 2021)
The source made the active and inactive calls. The rule behind the calls is not given here.

What was measured:
[1] = system: HCT-116; assay: Cytotoxicity against human HCT-116 cells assessed as reduction in cell viability incubated for 48 hrs by MTT assay; type: functional, cell-based; conditions: HCT-116, 48 h
[2] = system: HepG2; assay: Cytotoxicity against human HepG2 cells assessed as reduction in cell viability incubated for 48 hrs by MTT assay; type: functional, cell-based; conditions: HepG2, 48 h
[3] = system: NCM460; assay: Cytotoxicity against human NCM460 cells assessed as reduction in cell viability incubated for 48 hrs by MTT assay; type: cell-based; conditions: NCM460, 48 h
[4] = Selectivity index, ratio of IC50 for human NCM460 cells to IC50 for human HT-29 cells; type: toxicity; conditions: NCM460 cells versus HT-29 cells, read-out: Ratio IC50
[5] = system: U2OS; assay: Cytotoxicity against human U2OS cells assessed as reduction in cell viability incubated for 48 hrs by MTT assay; type: functional, cell-based
[6] = system: HT-29; assay: Cytotoxicity against human HT-29 cells assessed as reduction in cell viability incubated for 48 hrs by MTT assay; type: functional, cell-based; conditions: HT-29, 48 h
[7] = system: MDA-MB-231; assay: Cytotoxicity against human MDA-MB-231 cells assessed as reduction in cell viability incubated for 48 hrs by MTT assay; type: functional, cell-based; conditions: MDA-MB-231, 48 h
[8] = system: SW480; assay: Cytotoxicity against human SW480 cells assessed as reduction in cell viability incubated for 48 hrs by MTT assay; type: functional, cell-based; conditions: SW480, 48 h
[9] = Selectivity index, ratio of IC50 for human NCM460 cells to IC50 for human SW480 cells
[10] = system: A549; assay: cells; conditions: Homo sapiens, A549, 48 h
[11] = biological target: Pyruvate kinase PKM (Homo sapiens, UniProt P14618); assay: Activation of recombinant human PKM2 at 10 uM incubated 30 mins by fluorescence microplate reader analysis; conditions: filed as activator
Pyruvate kinase PKM, sequence (P14618 2-531 limits assumed): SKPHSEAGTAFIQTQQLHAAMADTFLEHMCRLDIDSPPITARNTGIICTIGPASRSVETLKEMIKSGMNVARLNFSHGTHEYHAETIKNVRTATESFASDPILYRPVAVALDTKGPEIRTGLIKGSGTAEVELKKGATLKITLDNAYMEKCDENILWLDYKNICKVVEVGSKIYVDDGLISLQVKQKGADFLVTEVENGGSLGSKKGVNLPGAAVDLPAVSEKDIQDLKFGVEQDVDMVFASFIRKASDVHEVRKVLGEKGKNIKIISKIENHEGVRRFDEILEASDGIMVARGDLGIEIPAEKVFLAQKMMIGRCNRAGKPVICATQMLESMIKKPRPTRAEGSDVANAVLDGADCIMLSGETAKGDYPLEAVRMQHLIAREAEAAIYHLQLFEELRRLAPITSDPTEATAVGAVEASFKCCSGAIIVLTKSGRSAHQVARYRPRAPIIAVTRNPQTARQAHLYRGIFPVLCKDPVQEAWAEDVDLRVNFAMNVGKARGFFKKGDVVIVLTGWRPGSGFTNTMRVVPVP

Work on C=C1C(=O)O[C@@H]2C3O[C@]3(C)CC/C=C(\C)CC[C@@H]12 (some centres undefined) yielded an IC50 [1] of 8.12 µM, an IC50 [2] of 26.1 µM and an IC50 [3] of 2.78 µM. For the same molecule, the selectivity ratio [4] was 0.38, the IC50 [5] was 7 µM and the IC50 [6] was 7.41 µM. The IC50 [7] was 8.68 µM, the IC50 [8] was 3.56 µM and the “Ratio IC50” value [9] was 0.78. For the same molecule, the IC50 [10] was 10.3 µM.

In the case of C=C1C(=O)O[C@H]2[C@H]1CC/C(COC(=O)c1ccc3ncccc3c1)=C/CC[C@@]1(C)O[C@@H]21, the IC50 [1] is reported as 1.6 µM, the IC50 [2] is reported as 6.6 µM and the IC50 [5] is reported as 3.11 µM. For the same molecule, the IC50 [6] was 1.33 µM, the IC50 [7] was 1.99 µM and the Activity [11] was “Active”. The IC50 [8] was 0.29 µM and the IC50 [10] was 3.18 µM.

With C=C1C(=O)O[C@H]2[C@H]1C[C@H](OC(=O)c1ccc3ncccc3c1)C(C)=C1CC[C@@](C)(O)[C@@H]12 the IC50 [1] was 1.1 µM, the IC50 [2] was 4.53 µM and the IC50 [5] was 2.36 µM. The IC50 [6] was 1.46 µM, the IC50 [7] was 2.66 µM and the IC50 [8] was 0.4 µM. The IC50 [10] was 1.58 µM.

With C=C1C(=O)O[C@H]2[C@H]1CC/C(COC(=O)CCn1cnc3ccccc3c1=O)=C/CC[C@@]1(C)O[C@@H]21 the IC50 [1] was 5.71 µM, the IC50 [2] was 17.9 µM and the IC50 [5] was 7.76 µM. For the same molecule, the IC50 [6] was 5.21 µM, the IC50 [7] was 8.37 µM and the IC50 [8] was 3.23 µM. The IC50 [10] was 8.63 µM.

Molecule C=C1C(=O)O[C@H]2[C@H]1CC/C(COC(=O)c1ccc3ccccc3n1)=C/CC[C@@]1(C)O[C@@H]21 has an IC50 [1] of 2.97 µM, an IC50 [2] of 8.84 µM and an IC50 [5] of 2.22 µM. The IC50 [6] was 2.68 µM, the IC50 [7] was 2.14 µM and the IC50 [8] was 1.2 µM. It also gave an IC50 [10] of 2.95 µM.
